In the supplement of paper PMC10307832:

Tests used:
Test in all cases: relative viability (nuclei count vs DMSO), 5 days (fraction); higher = more cells survive
IPA-3 + Palbociclib = compound: C1=CC=C2C(=C1)C=CC(=C2SSC3=C(C=CC4=CC=CC=C43)O)O [IPA-3] + CC(=O)c1c(C)c2cnc(Nc3ccc(N4CCNCC4)cn3)nc2n(C2CCCC2)c1=O [Palbociclib] (partner 0.5 µM)
Summary of the method: (§1)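 After 5 days of treatment, lung cancer cells in 1536-well plates were fixed and stained in a single step (final 0.05% Triton X-100, 1% formaldehyde, 1 ug/ml Hoechst) and their nuclei counted on 4× images. Treatment had been applied by pin tool the day after seeding as one drug alone or as a fixed anchor-drug dose with five library-drug doses (not always all listed) in √10 steps. Relative viability is the nuclei count of treated wells divided by that of vehicle wells, and values are medians of duplicate plates.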

IPA-3 + Phenformin = compound: C1=CC=C2C(=C1)C=CC(=C2SSC3=C(C=CC4=CC=CC=C43)O)O [IPA-3] + N=C(N)NC(=N)NCCc1ccccc1 [Phenformin] (partner 250 µM)
Summary of the method: as §1

RAF265 + Bortezomib = compound: Cn1c(Nc2ccc(C(F)(F)F)cc2)nc2cc(Oc3ccnc(-c4ncc(C(F)(F)F)[nH]4)c3)ccc21 [RAF265] + CC(C)C[C@H](NC(=O)[C@H](Cc1ccccc1)NC(=O)c1cnccn1)B(O)O [Bortezomib] (partner 0.002 µM)
Summary of the method: as §1

Doramapimod + Crizotinib = compound: Cc1ccc(-n2nc(C(C)(C)C)cc2NC(=O)Nc2ccc(OCCN3CCOCC3)c3ccccc23)cc1 [Doramapimod] + C[C@@H](Oc1cc(-c2cnn(C3CCNCC3)c2)cnc1N)c1c(Cl)ccc(F)c1Cl [Crizotinib] (partner 1 µM)
Summary of the method: as §1

| Cell Line | relative viability (IPA-3 + Palbociclib; first compound 0.2 µM) | relative viability (IPA-3 + Palbociclib; first compound 0.6325 µM) | relative viability (IPA-3 + Palbociclib; first compound 2 µM) | relative viability (IPA-3 + Palbociclib; first compound 6.325 µM) | relative viability (IPA-3 + Palbociclib; first compound 20 µM) | relative viability (IPA-3 + Phenformin; first compound 0.2 µM) | relative viability (IPA-3 + Phenformin; first compound 0.6325 µM) | relative viability (IPA-3 + Phenformin; first compound 2 µM) | relative viability (IPA-3 + Phenformin; first compound 6.325 µM) | relative viability (IPA-3 + Phenformin; first compound 20 µM) | relative viability (RAF265 + Bortezomib; first compound 0.01 µM) | relative viability (RAF265 + Bortezomib; first compound 0.03162 µM) | relative viability (RAF265 + Bortezomib; first compound 0.1 µM) | relative viability (RAF265 + Bortezomib; first compound 0.3162 µM) | relative viability (RAF265 + Bortezomib; first compound 1 µM) | relative viability (Doramapimod + Crizotinib; first compound 0.02 µM) | relative viability (Doramapimod + Crizotinib; first compound 0.06325 µM) | relative viability (Doramapimod + Crizotinib; first compound 0.2 µM) | relative viability (Doramapimod + Crizotinib; first compound 0.6325 µM) | relative viability (Doramapimod + Crizotinib; first compound 2 µM) |
| --- | --- | --- | --- | --- | --- | --- | --- | --- | --- | --- | --- | --- | --- | --- | --- | --- | --- | --- | --- | --- |
| SK-LU-1 | 0.446 | 0.341 | 0.374 | 0.401 | 0.411 | 0.775 | 0.54 | 0.499 | 0.509 | 0.588 | 1.18 | 1.08 | 1.09 | 0.453 | 0.512 | 0.915 | 0.929 | 0.909 | 0.83 | 0.92 |
| NCI-H2085 | 0.474 | 0.457 | 0.471 | 0.436 | 0.54 | 0.82 | 0.651 | 0.744 | 0.678 | 0.585 | 1.1 | 0.985 | 1.14 | 1.1 | 0.987 | 0.86 | 0.871 | 0.851 | 0.95 | 0.655 |
| NCI-H460 | 0.203 | 0.108 | 0.145 | 0.19 | 0.057 | 0.835 | 0.501 | 0.495 | 0.448 | 0.446 | 1.15 | 1.22 | 1.09 | – | 0.742 | 0.807 | 0.806 | 0.986 | 0.846 | 0.794 |
| Calu-6 | – | – | – | – | – | – | – | – | – | – | 0.919 | 0.819 | 0.834 | 0.473 | 0.368 | 0.823 | 0.815 | 0.865 | 0.866 | 0.745 |
| RERF-LC-KJ | 1.19 | 1.04 | 1.08 | 1.16 | 0.826 | 0.5 | 0.409 | 0.509 | 0.441 | 0.462 | 1.17 | 1.16 | 1.07 | 1.03 | 0.761 | 0.88 | 0.888 | 0.826 | 0.789 | 0.823 |
| LCLC-103H | 0.496 | 0.498 | 0.485 | 0.438 | 0.492 | 0.299 | 0.344 | 0.365 | 0.354 | 0.372 | 1.02 | 1.07 | 0.994 | 1 | 0.627 | 1.05 | 1.06 | 1.08 | 1.06 | 0.944 |
| HCC-15 | 0.889 | 0.78 | 0.462 | 0.697 | 0.704 | 0.634 | 0.343 | 0.469 | 0.477 | 0.583 | 0.95 | 0.96 | 0.985 | 0.941 | 0.792 | 0.836 | 0.731 | 0.838 | 0.887 | 0.718 |
| H3255 | 0.306 | 0.308 | 0.29 | 0.298 | 0.272 | 0.443 | 0.368 | 0.343 | 0.386 | 0.408 | 0.901 | 0.776 | 1.06 | – | 0.696 | 0.919 | 0.785 | 0.893 | 0.851 | 0.852 |
| NCI-H1563 | – | – | – | – | – | 0.703 | 0.644 | 0.655 | 0.727 | 0.735 | 0.994 | 0.836 | 0.851 | 0.69 | 0.803 | 0.977 | 0.917 | 0.859 | 0.893 | 0.612 |
| NCI-H596 | – | – | – | – | – | 0.906 | 0.829 | 0.668 | 0.817 | 0.787 | 1.18 | 0.987 | 1.08 | 0.85 | 0.743 | 0.95 | 0.95 | 1.02 | 1.01 | 1 |
| NCI-H2342 | 0.6 | 0.479 | 0.553 | 0.57 | 0.575 | 0.629 | 0.619 | 0.568 | 0.825 | 0.731 | – | – | – | – | – | – | – | – | – | – |
| NCI-H1299 | – | – | – | – | – | – | – | – | – | – | 1.04 | 1.02 | 1.05 | 0.969 | 0.741 | 0.963 | 0.945 | 0.936 | 1 | 0.902 |
| LK-2 | 0.847 | 0.643 | 0.709 | 0.818 | 0.706 | 0.408 | 0.456 | 0.421 | 0.43 | 0.438 | – | – | – | – | – | 0.246 | 0.266 | 0.207 | 0.207 | 0.205 |
| NCI-H358 | 0.141 | 0.117 | 0.153 | 0.14 | 0.157 | 0.433 | 0.355 | 0.306 | 0.359 | 0.278 | – | – | – | – | – | 0.531 | 0.614 | 0.552 | 0.702 | 0.509 |
| SK-MES-1 | 0.326 | 0.308 | 0.332 | 0.277 | 0.238 | 0.635 | 0.625 | 0.667 | 0.573 | 0.533 | – | – | – | – | – | 1.01 | 0.977 | 0.933 | 0.917 | 0.887 |
| SW 900 | 0.536 | 0.518 | 0.545 | 0.49 | 0.587 | 0.783 | 0.575 | 0.556 | 0.784 | 0.677 | – | – | – | – | – | – | – | – | – | – |
| EBC-1 | – | – | – | – | – | – | – | – | – | – | 0.48 | 0.464 | 0.521 | 0.482 | 0.489 | 0.161 | 0.196 | 0.162 | 0.184 | 0.188 |
| NCI-H1395 | 0.681 | 0.524 | 0.634 | 0.608 | 0.61 | 0.46 | 0.431 | 0.446 | 0.479 | 0.469 | – | – | – | – | – | – | – | – | – | – |
| IA-LM | – | – | – | – | – | – | – | – | – | – | 0.77 | – | 0.805 | 0.593 | 0.548 | 0.856 | – | 0.699 | 0.795 | 0.792 |
| NCI-H1703 | – | – | – | – | – | – | – | – | – | – | 0.253 | 0.289 | 0.36 | 0.295 | 0.216 | 0.614 | 0.576 | 0.519 | 0.783 | 0.493 |
| NCI-H2170 | 0.447 | 0.389 | 0.364 | 0.334 | 0.441 | 0.438 | 0.358 | 0.457 | 0.356 | 0.481 | – | – | – | – | – | 1.12 | 1.2 | 1.09 | 1.22 | 1.14 |
| NCI-H1793 | 0.345 | 0.288 | 0.311 | 0.318 | 0.371 | 0.509 | 0.317 | 0.334 | 0.458 | 0.545 | – | – | – | – | – | – | – | – | – | – |
